In ChEMBL document CHEMBL5724914, “Linking interpersonal differences in gut microbiota composition and drug biotransformation activity” (2024):

Conditions: human gut metagenome, 24 h, 2 µM
Note: call rule not given here.

| SMILES | Bacterial Biotransformation |
| --- | --- |
| COc1cc2nc(N3CCN(C(=O)C4COc5ccccc5O4)CC3)nc(N)c2cc1OC.CS(=O)(=O)O (stereo not given) [DOXAZOSIN MESYLATE] | Compound metabolized |
| CN(C)CCOC(C)(c1ccccc1)c1ccccn1.O=C(O)CCC(=O)O (stereo not given) [DOXYLAMINE SUCCINATE] | Compound NOT metabolized |

Assay: (§1) The drug is tested on Z-019 corresponding to rat gut metagenome with ENA study accession number: PRJEB37062 and ENA sample accession number: ERS12561818 for biotransformation under anaerobic condition. The drug concentrations were measured over 9 timepoints collected between 0 and 24 hours of incubation by liquid-chromatography-coupled mass spectrometry (LC–MS)
Conditions: 2 µM

| SMILES | Bacterial Biotransformation |
| --- | --- |
| COc1cc2nc(N3CCN(C(=O)C4COc5ccccc5O4)CC3)nc(N)c2cc1OC.CS(=O)(=O)O (stereo not given) [DOXAZOSIN MESYLATE] | Compound NOT metabolized |
| CN(C)CCOC(C)(c1ccccc1)c1ccccn1.O=C(O)CCC(=O)O (stereo not given) [DOXYLAMINE SUCCINATE] | Compound NOT metabolized |

Assay: as §1, with “on WLS-090” for “on Z-019”, “to human” for “to rat”, “number: ERS12561753” for “number: ERS12561818”
Conditions: 2 µM

| SMILES | Bacterial Biotransformation |
| --- | --- |
| COc1cc2nc(N3CCN(C(=O)C4COc5ccccc5O4)CC3)nc(N)c2cc1OC.CS(=O)(=O)O (stereo not given) [DOXAZOSIN MESYLATE] | Compound metabolized |
| CN(C)CCOC(C)(c1ccccc1)c1ccccn1.O=C(O)CCC(=O)O (stereo not given) [DOXYLAMINE SUCCINATE] | Compound NOT metabolized |

Assay: as §1, with “on WLS-086” for “on Z-019”, “to human” for “to rat”, “number: ERS12561752” for “number: ERS12561818”
Conditions: 2 µM

| SMILES | Bacterial Biotransformation |
| --- | --- |
| COc1cc2nc(N3CCN(C(=O)C4COc5ccccc5O4)CC3)nc(N)c2cc1OC.CS(=O)(=O)O (stereo not given) [DOXAZOSIN MESYLATE] | Compound metabolized |
| CN(C)CCOC(C)(c1ccccc1)c1ccccn1.O=C(O)CCC(=O)O (stereo not given) [DOXYLAMINE SUCCINATE] | Compound NOT metabolized |

Assay: as §1, with “on Z-018” for “on Z-019”, “to pig” for “to rat”, “number: ERS12561817” for “number: ERS12561818”
Conditions: 2 µM

| SMILES | Bacterial Biotransformation |
| --- | --- |
| COc1cc2nc(N3CCN(C(=O)C4COc5ccccc5O4)CC3)nc(N)c2cc1OC.CS(=O)(=O)O (stereo not given) [DOXAZOSIN MESYLATE] | Compound metabolized |
| CN(C)CCOC(C)(c1ccccc1)c1ccccn1.O=C(O)CCC(=O)O (stereo not given) [DOXYLAMINE SUCCINATE] | Compound NOT metabolized |

Assay: as §1, with “on WLS-027” for “on Z-019”, “to human” for “to rat”, “number: ERS12561744” for “number: ERS12561818”
Conditions: 2 µM

| SMILES | Bacterial Biotransformation |
| --- | --- |
| COc1cc2nc(N3CCN(C(=O)C4COc5ccccc5O4)CC3)nc(N)c2cc1OC.CS(=O)(=O)O (stereo not given) [DOXAZOSIN MESYLATE] | Compound metabolized |
| CN(C)CCOC(C)(c1ccccc1)c1ccccn1.O=C(O)CCC(=O)O (stereo not given) [DOXYLAMINE SUCCINATE] | Compound NOT metabolized |

Assay: as §1, with “on WLS-170” for “on Z-019”, “to human” for “to rat”, “number: ERS12561762” for “number: ERS12561818”
Conditions: 2 µM

| SMILES | Bacterial Biotransformation |
| --- | --- |
| COc1cc2nc(N3CCN(C(=O)C4COc5ccccc5O4)CC3)nc(N)c2cc1OC.CS(=O)(=O)O (stereo not given) [DOXAZOSIN MESYLATE] | Compound metabolized |
| CN(C)CCOC(C)(c1ccccc1)c1ccccn1.O=C(O)CCC(=O)O (stereo not given) [DOXYLAMINE SUCCINATE] | Compound NOT metabolized |

Assay: as §1, with “on WLS-039” for “on Z-019”, “to human” for “to rat”, “number: ERS12561746” for “number: ERS12561818”
Conditions: 2 µM

| SMILES | Bacterial Biotransformation |
| --- | --- |
| COc1cc2nc(N3CCN(C(=O)C4COc5ccccc5O4)CC3)nc(N)c2cc1OC.CS(=O)(=O)O (stereo not given) [DOXAZOSIN MESYLATE] | Compound NOT metabolized |
| CN(C)CCOC(C)(c1ccccc1)c1ccccn1.O=C(O)CCC(=O)O (stereo not given) [DOXYLAMINE SUCCINATE] | Compound NOT metabolized |

Assay: as §1, with “on Z-017” for “on Z-019”, “to mouse” for “to rat”, “number: ERS12561816” for “number: ERS12561818”
Conditions: 2 µM

| SMILES | Bacterial Biotransformation |
| --- | --- |
| COc1cc2nc(N3CCN(C(=O)C4COc5ccccc5O4)CC3)nc(N)c2cc1OC.CS(=O)(=O)O (stereo not given) [DOXAZOSIN MESYLATE] | Compound NOT metabolized |
| CN(C)CCOC(C)(c1ccccc1)c1ccccn1.O=C(O)CCC(=O)O (stereo not given) [DOXYLAMINE SUCCINATE] | Compound NOT metabolized |

Conditions: human gut metagenome, 24 h, 2 µM
Remark: another data set of the same source

| SMILES | Bacterial Biotransformation |
| --- | --- |
| COc1cc2nc(N3CCN(C(=O)C4COc5ccccc5O4)CC3)nc(N)c2cc1OC.CS(=O)(=O)O (stereo not given) [DOXAZOSIN MESYLATE] | Compound metabolized |
| CN(C)CCOC(C)(c1ccccc1)c1ccccn1.O=C(O)CCC(=O)O (stereo not given) [DOXYLAMINE SUCCINATE] | Compound NOT metabolized |

Assay: as §1, with “Z-005” for “Z-019”, “to” for “to rat gut”, “ERS12561805” for “ERS12561818”
Conditions: 2 µM

| SMILES | Bacterial Biotransformation |
| --- | --- |
| COc1cc2nc(N3CCN(C(=O)C4COc5ccccc5O4)CC3)nc(N)c2cc1OC.CS(=O)(=O)O (stereo not given) [DOXAZOSIN MESYLATE] | Compound metabolized |
| CN(C)CCOC(C)(c1ccccc1)c1ccccn1.O=C(O)CCC(=O)O (stereo not given) [DOXYLAMINE SUCCINATE] | Compound NOT metabolized |

Assay: as §1, with “Z-021” for “Z-019”, “to” for “to rat gut”, “ERS12561820” for “ERS12561818”
Conditions: 2 µM

| SMILES | Bacterial Biotransformation |
| --- | --- |
| COc1cc2nc(N3CCN(C(=O)C4COc5ccccc5O4)CC3)nc(N)c2cc1OC.CS(=O)(=O)O (stereo not given) [DOXAZOSIN MESYLATE] | Compound NOT metabolized |
| CN(C)CCOC(C)(c1ccccc1)c1ccccn1.O=C(O)CCC(=O)O (stereo not given) [DOXYLAMINE SUCCINATE] | Compound NOT metabolized |

Assay: as §1, with “Z-010” for “Z-019”, “to” for “to rat gut”, “ERS12561810” for “ERS12561818”
Conditions: 2 µM

| SMILES | Bacterial Biotransformation |
| --- | --- |
| COc1cc2nc(N3CCN(C(=O)C4COc5ccccc5O4)CC3)nc(N)c2cc1OC.CS(=O)(=O)O (stereo not given) [DOXAZOSIN MESYLATE] | Compound metabolized |
| CN(C)CCOC(C)(c1ccccc1)c1ccccn1.O=C(O)CCC(=O)O (stereo not given) [DOXYLAMINE SUCCINATE] | Compound NOT metabolized |

Conditions: human gut metagenome, 24 h, 2 µM
Remark: another data set of the same source

| SMILES | Bacterial Biotransformation |
| --- | --- |
| COc1cc2nc(N3CCN(C(=O)C4COc5ccccc5O4)CC3)nc(N)c2cc1OC.CS(=O)(=O)O (stereo not given) [DOXAZOSIN MESYLATE] | Compound metabolized |
| CN(C)CCOC(C)(c1ccccc1)c1ccccn1.O=C(O)CCC(=O)O (stereo not given) [DOXYLAMINE SUCCINATE] | Compound NOT metabolized |

Conditions: human gut metagenome, 24 h, 2 µM
Remark: another data set of the same source

| SMILES | Bacterial Biotransformation |
| --- | --- |
| COc1cc2nc(N3CCN(C(=O)C4COc5ccccc5O4)CC3)nc(N)c2cc1OC.CS(=O)(=O)O (stereo not given) [DOXAZOSIN MESYLATE] | Compound metabolized |
| CN(C)CCOC(C)(c1ccccc1)c1ccccn1.O=C(O)CCC(=O)O (stereo not given) [DOXYLAMINE SUCCINATE] | Compound NOT metabolized |

Assay: as §1, with “on Z-001” for “on Z-019”, “to mouse” for “to rat”, “number: ERS12561801” for “number: ERS12561818”
Conditions: 2 µM

| SMILES | Bacterial Biotransformation |
| --- | --- |
| COc1cc2nc(N3CCN(C(=O)C4COc5ccccc5O4)CC3)nc(N)c2cc1OC.CS(=O)(=O)O (stereo not given) [DOXAZOSIN MESYLATE] | Compound NOT metabolized |
| CN(C)CCOC(C)(c1ccccc1)c1ccccn1.O=C(O)CCC(=O)O (stereo not given) [DOXYLAMINE SUCCINATE] | Compound NOT metabolized |

Assay: as §1, with “Z-014” for “Z-019”, “ERS12561814” for “ERS12561818”
Conditions: 2 µM

| SMILES | Bacterial Biotransformation |
| --- | --- |
| COc1cc2nc(N3CCN(C(=O)C4COc5ccccc5O4)CC3)nc(N)c2cc1OC.CS(=O)(=O)O (stereo not given) [DOXAZOSIN MESYLATE] | Compound NOT metabolized |
| CN(C)CCOC(C)(c1ccccc1)c1ccccn1.O=C(O)CCC(=O)O (stereo not given) [DOXYLAMINE SUCCINATE] | Compound NOT metabolized |

Conditions: human gut metagenome, 24 h, 2 µM
Remark: another data set of the same source

| SMILES | Bacterial Biotransformation |
| --- | --- |
| COc1cc2nc(N3CCN(C(=O)C4COc5ccccc5O4)CC3)nc(N)c2cc1OC.CS(=O)(=O)O (stereo not given) [DOXAZOSIN MESYLATE] | Compound NOT metabolized |
| CN(C)CCOC(C)(c1ccccc1)c1ccccn1.O=C(O)CCC(=O)O (stereo not given) [DOXYLAMINE SUCCINATE] | Compound NOT metabolized |

Conditions: human gut metagenome, 24 h, 2 µM
Remark: another data set of the same source

| SMILES | Bacterial Biotransformation |
| --- | --- |
| COc1cc2nc(N3CCN(C(=O)C4COc5ccccc5O4)CC3)nc(N)c2cc1OC.CS(=O)(=O)O (stereo not given) [DOXAZOSIN MESYLATE] | Compound metabolized |
| CN(C)CCOC(C)(c1ccccc1)c1ccccn1.O=C(O)CCC(=O)O (stereo not given) [DOXYLAMINE SUCCINATE] | Compound NOT metabolized |

Assay: as §1, with “on WLS-082” for “on Z-019”, “to human” for “to rat”, “number: ERS12561751” for “number: ERS12561818”
Conditions: 2 µM

| SMILES | Bacterial Biotransformation |
| --- | --- |
| COc1cc2nc(N3CCN(C(=O)C4COc5ccccc5O4)CC3)nc(N)c2cc1OC.CS(=O)(=O)O (stereo not given) [DOXAZOSIN MESYLATE] | Compound metabolized |
| CN(C)CCOC(C)(c1ccccc1)c1ccccn1.O=C(O)CCC(=O)O (stereo not given) [DOXYLAMINE SUCCINATE] | Compound NOT metabolized |
